The target in this assay is T1, SLC6A14 (Homo sapiens, UniProt Q9UN76).
T1 construct: endogenous transporter in opened human intestinal organoids
T1 sequence (Q9UN76 1-642): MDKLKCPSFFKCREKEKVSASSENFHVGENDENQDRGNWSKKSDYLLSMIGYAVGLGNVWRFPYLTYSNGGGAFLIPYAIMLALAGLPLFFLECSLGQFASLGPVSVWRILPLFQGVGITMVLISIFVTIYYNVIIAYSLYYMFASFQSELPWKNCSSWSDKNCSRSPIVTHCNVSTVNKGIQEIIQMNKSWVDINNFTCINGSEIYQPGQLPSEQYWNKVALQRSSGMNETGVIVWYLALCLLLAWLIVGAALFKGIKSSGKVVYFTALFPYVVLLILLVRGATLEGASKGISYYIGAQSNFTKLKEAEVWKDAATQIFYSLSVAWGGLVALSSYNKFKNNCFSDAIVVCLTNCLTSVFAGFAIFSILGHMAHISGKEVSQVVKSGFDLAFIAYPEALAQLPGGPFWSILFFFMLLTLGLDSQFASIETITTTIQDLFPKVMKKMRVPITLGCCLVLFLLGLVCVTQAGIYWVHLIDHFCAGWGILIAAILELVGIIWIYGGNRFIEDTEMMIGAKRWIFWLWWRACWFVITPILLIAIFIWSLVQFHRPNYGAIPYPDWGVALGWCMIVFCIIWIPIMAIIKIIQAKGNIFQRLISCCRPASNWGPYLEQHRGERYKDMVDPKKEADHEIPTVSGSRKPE
Description: FLIPR membrane potential (AAC) assay, α-MT-sensitive electrogenic uptake at […]. It is filed as cell-based.

SMILES strings stand for the structures.

In the case of `N=C(N)NCCC[C@H](N)C(=O)O` [L-Arg], the “FLIPR membrane potential (AAC) assay, α-MT-sensitive electrogenic uptake at 1 mM” value is “the addition of arginine (L-Arg) to the apical surface of these opened organoids evokes apical membrane depolarization”.

(Values after paper PMC8699884, “High-Throughput Functional Analysis of CFTR and Other Apically Localized Proteins in iPSC-Derived Human Intestinal Organoids” (Cells, 2021).)
